One test addresses T1, mKv1.1 channels (Mus musculus, UniProt P16388).
T1 construct: expressed in transfected cells
Briefly: Whole-cell patch-clamp block of Kv1.1 channels in L929 cells. It counts as cell-based. Particulars: for current block on Kv1.1 channels: 100 nM, n=3, preliminary. Here is the method: Cells and Cell Lines—L929 mouse fibroblast cells stably expressing mKv1.1 and mKv1.3 channels (Grissmer S et al., 1994) were maintained in DMEM medium (Invitrogen Corporation, Carlsbad, Calif., United States of America) supplemented with 100 IU/mL penicillin, 0.1 μg/mL streptomycin, 2 mM L-glutamine, 10% heat-inactivated foetal bovine serum, and 0.5 mg/mL G418 (EMD Chemicals, Gibbstown, N.J., United States of America).
Electrophysiological Analysis—Experiments were conducted at room temperature in the whole-cell configuration of the patch-clamp technique. A manual setup and an automated Port-a-patch setup (Nanion, North Brunswick, N.J., United States of America) were used in parallel, both linked to a HEKA EPC10USB amplifier. […] The bath solution contained (in mM): 160 NaCl, 4.5 KCl, 2 CaCl2, 1 MgCl2, 10 HEPES, pH 7.2, 300 mOsm. Kv currents were elicited every 30 s by 200-ms depolarising pulses from a holding potential of −80 mV to 40 mV. Kd values and Hill coefficients were determined by fitting the Hill equation to the reduction of peak current measured at 40 mV.

Test [1] addresses T2, Kv1.3 (Rattus norvegicus, UniProt P15384). Particulars: Kv1.3 complex; cited from earlier work.
In another test the target is rat Kv1.3 channels (Rattus norvegicus, UniProt P15384). Particulars: Lebrun B et al., 1997; read-out: IC50 inhibition of rat Kv1.3 channels; cited from earlier work.
rat Kv1.3 channels, sequence (P15384 whole entry): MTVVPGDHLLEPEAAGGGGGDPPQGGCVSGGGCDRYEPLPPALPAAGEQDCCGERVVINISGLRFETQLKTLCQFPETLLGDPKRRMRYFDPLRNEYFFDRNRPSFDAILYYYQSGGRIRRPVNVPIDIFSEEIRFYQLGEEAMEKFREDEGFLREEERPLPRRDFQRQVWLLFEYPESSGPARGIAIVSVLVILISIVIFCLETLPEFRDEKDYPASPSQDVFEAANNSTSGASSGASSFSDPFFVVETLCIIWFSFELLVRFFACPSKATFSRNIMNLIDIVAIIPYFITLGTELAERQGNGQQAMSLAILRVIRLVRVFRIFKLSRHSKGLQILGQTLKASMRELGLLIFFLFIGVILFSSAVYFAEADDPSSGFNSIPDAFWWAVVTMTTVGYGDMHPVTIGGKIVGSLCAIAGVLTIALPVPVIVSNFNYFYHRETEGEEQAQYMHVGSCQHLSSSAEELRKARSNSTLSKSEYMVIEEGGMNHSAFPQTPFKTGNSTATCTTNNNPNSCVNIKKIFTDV
In test [2] the test system is rat brain synaptosomal membranes. Particulars: cited from earlier work.
A further test deals with Kv1.1 (Homo sapiens, UniProt Q09470). Particulars: Kv1.1 complex; cited from earlier work.
Kv1.1, sequence (Q09470 whole entry): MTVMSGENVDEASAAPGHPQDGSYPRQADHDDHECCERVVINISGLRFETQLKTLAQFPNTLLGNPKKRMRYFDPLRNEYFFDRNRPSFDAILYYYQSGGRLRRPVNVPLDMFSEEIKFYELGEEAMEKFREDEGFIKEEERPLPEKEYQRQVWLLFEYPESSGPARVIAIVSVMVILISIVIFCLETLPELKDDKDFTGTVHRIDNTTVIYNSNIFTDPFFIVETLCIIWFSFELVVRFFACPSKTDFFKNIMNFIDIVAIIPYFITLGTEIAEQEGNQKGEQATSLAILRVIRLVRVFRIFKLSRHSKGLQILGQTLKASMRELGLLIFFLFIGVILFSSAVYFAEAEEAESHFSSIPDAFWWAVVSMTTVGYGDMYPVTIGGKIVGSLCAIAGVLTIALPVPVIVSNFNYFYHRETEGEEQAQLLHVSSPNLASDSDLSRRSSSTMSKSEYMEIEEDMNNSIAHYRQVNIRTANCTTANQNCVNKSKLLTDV
Test [3] has as its target T2, Kv1.3. Particulars: C-terminal amidation; cited from earlier work.
Test [4] deals with voltage-gated K+ channels. Particulars: rat brain synaptosomal membranes; read-out: IC50 competition with 125I-kaliotoxin binding; cited from earlier work.

This is an account of results in patent US9708377B2, “Scorpion toxin analogue and method for treating autoimmune diseases” (MONASH UNIVERSITY, priority 2013, dated 2017).

Some results are limits rather than exact numbers.

T1 sequence (P16388 whole entry): as the sequence (Q09470 whole entry) above, with V9A, A14T, V202I, N213T, M449I, V471A, A476G, N482D counted along it
T2 sequence (P15384 whole entry): as the sequence (P15384 whole entry) above

Turning to `CSCC[C@@H]1NC(=O)[C@@H]2CSSC[C@H](NC(=O)[C@H](CO)NC(=O)[C@H](C)N)C(=O)N[C@@H](CCCNC(=N)N)C(=O)N[C@@H]([C@@H](C)O)C(=O)N3CCC[C@H]3C(=O)N[C@@H](CCCCN)C(=O)N[C@@H](CC(=O)O)C(=O)N[C@H]3CSSC[C@H](NC(=O)[C@H](CCCCN)NC(=O)[C@H](CCCNC(=N)N)NC(=O)[C@H](CC(N)=O)NC1=O)C(=O)N[C@@H](CCCCN)C(=O)N[C@H]1CSSC[C@H](NC(=O)[C@@H]4CCCN4C(=O)[C@H](CC(=O)O)NC(=O)[C@H](C)NC3=O)C(=O)N[C@@H](C)C(=O)N[C@@H](CCCCN)C(=O)N[C@@H](CCC(=O)O)C(=O)N[C@@H]([C@@H](C)O)C(=O)NCC(=O)N[C@@H](CSSC[C@@H](C(N)=O)NC(=O)[C@H](CCCNC(=N)N)NC(=O)[C@H](CC(N)=O)NC1=O)C(=O)N1CCC[C@H]1C(=O)N[C@@H](Cc1ccc(O)cc1)C(=O)NCC(=O)N[C@@H](CCCCN)C(=O)N2` [HsTX1[R14A]], on mKv1.1 channels, the IC50 (commonly the concentration needed to halve the response being measured) was above 100 nM and the “current block on Kv1.1 channels” value is on record as 10-16%.

With `CC[C@@H]1NC(=O)[C@@H]2CSSC[C@@H]3NC(=O)[C@H](CCCCN)NC(=O)[C@@H]4CSSC[C@H](NC(=O)[C@H](CC(=O)O)NC(=O)[C@H](CCCCN)NC(=O)[C@@H]5CCCN5C(=O)[C@H]([C@@H](C)O)NC(=O)[C@H](CCCNC(=N)N)NC(=O)[C@@H](NC(=O)[C@H](CO)NC(=O)[C@H](C)N)CSSC[C@H](NC(=O)[C@H](CCCCN)NC(=O)CNC(=O)[C@H](Cc5ccc(O)cc5)NC(=O)[C@@H]5CCCN5C(=O)[C@H](CSSC[C@@H](C(N)=O)NC(=O)[C@H](CCCNC(=N)N)NC(=O)[C@H](CC(N)=O)NC3=O)NC(=O)CNC(=O)[C@H]([C@@H](C)O)NC(=O)[C@H](CCC(=O)O)NC(=O)[C@H](CCCCN)NC1=O)C(=O)N[C@@H](CCSC)C(=O)N[C@@H](CC(N)=O)C(=O)N[C@@H](CCCNC(=N)N)C(=O)N[C@@H](CCCCN)C(=O)N4)C(=O)N[C@@H](C)C(=O)N[C@@H](CC(=O)O)C(=O)N1CCC[C@H]1C(=O)N2` [HsTX1[R14Abu], ASCRTPKDCADPCXKETGCPYGKCMNRKCKCNRC], at mKv1.1 channels, the IC50 is above 100 nM and the “current block on Kv1.1 channels” value is listed as 15-20%.

Take “ASCRTPKDCADPCRKETGCPYGKCMNRKCKCNRC [HsTX1]”: the “Gb (exp) experimental binding free energy” value at Kv1.3 [1] is -14.9 ± 0.2 kcal/mol; on Kv1.1, -11.1 ± 0.1 kcal/mol. Moreover, the half-maximal inhibitory concentration (IC50) is around 0.012 nM at rat Kv1.3 channels and around 0.001 nM in test [4]. Moreover, in test [2], the “competition with 125I-apamin binding” value is on record as “did not compete”. At Kv1.3 [3], the “affinity for Kv1.3 of amidated form compared to synthetic carboxylated form” value is on record as “five-fold greater affinity for Kv1.3”.
